1 molecule from patent US20210179636A1, “ANTIBACTERIAL COMPOUNDS” (priority 2016, published 2021) can be followed below.

Common to all, as to assay type: cell-based
The test system of series [1] is Enterobacter cloacae NCTC 13406. Kind of series: MIC, broth microdilution (CLSI). Particulars: Enterobacter cloacae, NCTC13406; E. cloacae NCTC 13406; 16-20 h; mode of three experiments; read-out: MIC.
The subject of series [2] is Escherichia coli ATCC 25922. Kind of series: MIC, broth microdilution (CLSI). The note with it: Escherichia coli, ATCC25922; E. coli ATCC 25922; 16-20 h; mode of three experiments; read-out: MIC.
In series [3] the test system is HepG2 ATCC HB-8065. Kind of series: Human cell viability assay (CellTiter-Glo). On the procedure:
Compounds are assessed for potential non-specific cytotoxic effects against a human hepatic cell line (HepG2 ATCC HB-8065). HepG2 cells are seeded at 20,000 cells/well in 96-well microtitre plates in minimal essential medium (MEM) supplemented with a final concentration of 10% FBS and 1 mM sodium pyruvate. After 24 h compound dilutions are prepared in Dulbecco's minimum essential media (DMEM) supplemented with final concentrations of 0.001% FBS, 0.3% bovine albumin and 0.02% HEPES and added to cells. Compounds are tested in two-fold serial dilutions over a final concentration range of 1-128 μg/mL in a final DMSO concentration of 1% vol/vol. Chlorpromazine is used as a positive control. Cells are incubated with compound at 37° C. and 5% CO2 for a further 24 h, after which time the CellTiter-Glo reagent (Promega) is added. Luminescence is measured on a BMG Omega plate reader. Data are analysed using GraphPad Prism software to determine the concentration of compound that inhibits cell viability by fifty percent (IC50).

Series [4] deals with Klebsiella pneumoniae NCTC 13443. Kind of series: MIC, broth microdilution (CLSI). The note with it: NCTC13443, K. pneumoniae NCTC 13443, 16-20 h, mode of three experiments.
Series [5] concerns Staphylococcus aureus ATCC 29213. Description: MIC, broth microdilution (CLSI). The note with it: Staphylococcus aureus, ATCC29213; S. aureus ATCC 29213; 16-20 h; mode of three experiments; read-out: MIC.
The subject of series [6] is Streptococcus pneumoniae ATCC 49619. Description: MIC, broth microdilution (CLSI). The note with it: Streptococcus pneumoniae, ATCC49619; S. pneumoniae ATCC 49619; 16-20 h; mode of three experiments; read-out: MIC.
Series [7] deals with Haemophilus influenzae ATCC 49247. Description: MIC, broth microdilution (CLSI). Particulars: Haemophilus influenzae, ATCC49247; H. influenzae ATCC 49247; 16-20 h; mode of three experiments; read-out: MIC.
Series [8] concerns Klebsiella pneumoniae ATCC 700603. Kind of series: MIC, broth microdilution (CLSI). Particulars: Klebsiella pneumoniae, ATCC700603; K. pneumoniae ATCC 700603; 16-20 h; mode of three experiments; read-out: MIC.
The test system of series [9] is Pseudomonas aeruginosa ATCC 27853. Description: MIC, broth microdilution (CLSI). The note with it: Pseudomonas aeruginosa, ATCC27853; P. aeruginosa ATCC 27853; 16-20 h; mode of three experiments; read-out: MIC.
Series [10] deals with Acinetobacter baumannii NCTC 13420. Description: MIC, broth microdilution (CLSI). Particulars: Acinetobacter baumannii, NCTC13420; A. baumannii NCTC 13420; 16-20 h; mode of three experiments; read-out: MIC.

≈ marks a conversion by molar mass, not a printed value.

With `N#Cc1cccc(-c2cccc(CN3C[C@@H]4CN(c5ccc6c(n5)NC(=O)CO6)C(=O)O[C@H]4C3)c2O)n1` (relative stereo) [Compound 3], the MIC in series [1] was above 100 µg/mL; in series [2], 1 to 10 µg/mL (≈ 2.01 to 20.1 µM); in series [4], 1 to 10 µg/mL (≈ 2.01 to 20.1 µM); in series [5] it was below 1 µg/mL; in [6], 1 to 10 µg/mL (≈ 2.01 to 20.1 µM); in series [7] it was 1 to 10 µg/mL (≈ 2.01 to 20.1 µM). The figures for the MIC in [8], in [9] and in series [10] were above 100 µg/mL, above 100 µg/mL and 1 to 10 µg/mL (≈ 2.01 to 20.1 µM), respectively. Besides, in series [3] (Homo sapiens, HepG2 cell viability, 24 h with compound, range 1-128 μg/mL), the IC50 fell in the range of 10 to 100 µg/mL (≈ 20.1 to 201 µM). In series [3] (summary of Table 3), the “toxicity against HepG2 human hepatic cell line (in words)” value was “acceptable level of hepatic toxicity”.
